The record followed here is ChEMBL document CHEMBL6114989, “D-morphinan analogs with favorable pharmacokinetic profiles as dual-acting antidepressants” (Eur J Med Chem, 2025).

Each structure is given as a SMILES string. pIC50: −log10 of the molar value. The source made the active and inactive calls. The rule behind the calls is not given here. Where only a bound is given, the exact number is not on record here.

Data set [1] has as its target Sodium-dependent dopamine transporter (Homo sapiens, UniProt Q01959). Put plainly: Inhibition of DAT (unknown origin) at 10 uM relative to control.
Data set [2] concerns the target T1, Glutamate NMDA receptor; GRIN1/GRIN2A (Homo sapiens, UniProt Q05586+Q12879). Description: Inhibition of human GluN1/GluN2A NMDA receptor expressed in HEK293 cells assessed as reduction in glutamate induced current at -70 mV holding potential by whole-cell patch clamp technique. The format is cell-based. (In general: Patch clamp records ionic current or voltage across a cell membrane.)

Data set [3] deals with T2, Sodium-dependent noradrenaline transporter (Homo sapiens, UniProt P23975). Description: Inhibition of human NET.
T2 sequence (P23975 whole entry): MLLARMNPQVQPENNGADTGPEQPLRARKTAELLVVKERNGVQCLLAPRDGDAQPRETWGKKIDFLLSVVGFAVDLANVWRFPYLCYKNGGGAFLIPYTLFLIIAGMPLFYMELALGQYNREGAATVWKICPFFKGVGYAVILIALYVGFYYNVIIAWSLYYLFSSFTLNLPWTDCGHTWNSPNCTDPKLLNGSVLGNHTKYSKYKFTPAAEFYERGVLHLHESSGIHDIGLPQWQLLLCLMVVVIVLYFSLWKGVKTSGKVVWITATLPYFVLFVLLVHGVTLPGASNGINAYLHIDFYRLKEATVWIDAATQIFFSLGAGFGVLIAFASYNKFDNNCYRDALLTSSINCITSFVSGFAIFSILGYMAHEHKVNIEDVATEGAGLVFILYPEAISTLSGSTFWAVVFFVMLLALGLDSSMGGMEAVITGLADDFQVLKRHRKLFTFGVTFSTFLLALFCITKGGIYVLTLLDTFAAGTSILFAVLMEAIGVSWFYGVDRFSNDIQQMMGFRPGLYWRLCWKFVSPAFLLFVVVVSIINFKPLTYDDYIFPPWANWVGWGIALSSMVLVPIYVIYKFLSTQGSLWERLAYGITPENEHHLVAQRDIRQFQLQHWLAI
Data set [4] concerns the target Sodium-dependent serotonin transporter (Homo sapiens, UniProt P31645).
Data set [5] addresses T2, Sodium-dependent noradrenaline transporter. Description: Inhibition of NET (unknown origin) at 10 uM relative to control.
The next data set has as its target Mu-type opioid receptor (Homo sapiens, UniProt P35372). Description: Agonist activity at human mu-opioid receptor stably expressed in CHO cells assessed as inhibition of forskolin-induced cAMP accumulation at 30 uM preincubated with compound for 10 mins followed by forskolin induction and measured after 30 mins by LANCE Ultra cAMP assay relative to control. It counts as functional, cell-based. Conditions: time 40.0 min.

A short description of data set [6]: Nephrotoxicity against human HEK293 cells assessed as inhibition of cell proliferation incubated for 48 hrs by celltiter-luminescence assay. It counts as toxicity, cell-based.
Data set [7] is described as follows: Hepatotoxicity against human HepG2 cells assessed as inhibition of cell proliferation incubated for 48 hrs by celltiter-luminescence assay. It counts as toxicity, cell-based.
A short description of data set [8]: Selectivity index, ratio of IC50 for inhibition of human GluN1/GluN2A NMDA receptor expressed in HEK293 cells to IC50 for inhibition of SERT (unknown origin). It counts as cell-based.
The target of data set [9] is T1, Glutamate NMDA receptor; GRIN1/GRIN2A. Description: Antagonist activity at human GluN1/GluN2A NMDA receptor expressed in HEK293 cells assessed as reduction in glutamate induced current at -70 mV holding potential by whole-cell patch clamp technique. It counts as cell-based.

Chain of Sodium-dependent dopamine transporter (Q01959 whole entry): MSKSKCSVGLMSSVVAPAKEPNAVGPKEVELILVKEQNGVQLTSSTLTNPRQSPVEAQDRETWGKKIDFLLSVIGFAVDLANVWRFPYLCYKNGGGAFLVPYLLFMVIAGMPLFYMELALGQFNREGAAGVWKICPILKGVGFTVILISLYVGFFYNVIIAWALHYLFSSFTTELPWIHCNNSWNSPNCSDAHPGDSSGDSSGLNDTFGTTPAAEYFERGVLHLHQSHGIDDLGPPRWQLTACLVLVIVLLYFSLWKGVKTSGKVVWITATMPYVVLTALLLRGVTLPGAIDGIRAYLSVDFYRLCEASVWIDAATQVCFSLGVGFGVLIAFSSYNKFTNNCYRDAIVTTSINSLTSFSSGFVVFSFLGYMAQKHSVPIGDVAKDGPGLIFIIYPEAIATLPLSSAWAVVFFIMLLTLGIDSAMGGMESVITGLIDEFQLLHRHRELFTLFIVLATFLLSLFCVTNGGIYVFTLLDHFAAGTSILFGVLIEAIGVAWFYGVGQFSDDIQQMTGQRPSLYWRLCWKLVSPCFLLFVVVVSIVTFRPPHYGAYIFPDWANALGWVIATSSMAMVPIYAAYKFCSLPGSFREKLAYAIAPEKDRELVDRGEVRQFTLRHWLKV
T1 sequence (Q12879 whole entry, other chains not shown): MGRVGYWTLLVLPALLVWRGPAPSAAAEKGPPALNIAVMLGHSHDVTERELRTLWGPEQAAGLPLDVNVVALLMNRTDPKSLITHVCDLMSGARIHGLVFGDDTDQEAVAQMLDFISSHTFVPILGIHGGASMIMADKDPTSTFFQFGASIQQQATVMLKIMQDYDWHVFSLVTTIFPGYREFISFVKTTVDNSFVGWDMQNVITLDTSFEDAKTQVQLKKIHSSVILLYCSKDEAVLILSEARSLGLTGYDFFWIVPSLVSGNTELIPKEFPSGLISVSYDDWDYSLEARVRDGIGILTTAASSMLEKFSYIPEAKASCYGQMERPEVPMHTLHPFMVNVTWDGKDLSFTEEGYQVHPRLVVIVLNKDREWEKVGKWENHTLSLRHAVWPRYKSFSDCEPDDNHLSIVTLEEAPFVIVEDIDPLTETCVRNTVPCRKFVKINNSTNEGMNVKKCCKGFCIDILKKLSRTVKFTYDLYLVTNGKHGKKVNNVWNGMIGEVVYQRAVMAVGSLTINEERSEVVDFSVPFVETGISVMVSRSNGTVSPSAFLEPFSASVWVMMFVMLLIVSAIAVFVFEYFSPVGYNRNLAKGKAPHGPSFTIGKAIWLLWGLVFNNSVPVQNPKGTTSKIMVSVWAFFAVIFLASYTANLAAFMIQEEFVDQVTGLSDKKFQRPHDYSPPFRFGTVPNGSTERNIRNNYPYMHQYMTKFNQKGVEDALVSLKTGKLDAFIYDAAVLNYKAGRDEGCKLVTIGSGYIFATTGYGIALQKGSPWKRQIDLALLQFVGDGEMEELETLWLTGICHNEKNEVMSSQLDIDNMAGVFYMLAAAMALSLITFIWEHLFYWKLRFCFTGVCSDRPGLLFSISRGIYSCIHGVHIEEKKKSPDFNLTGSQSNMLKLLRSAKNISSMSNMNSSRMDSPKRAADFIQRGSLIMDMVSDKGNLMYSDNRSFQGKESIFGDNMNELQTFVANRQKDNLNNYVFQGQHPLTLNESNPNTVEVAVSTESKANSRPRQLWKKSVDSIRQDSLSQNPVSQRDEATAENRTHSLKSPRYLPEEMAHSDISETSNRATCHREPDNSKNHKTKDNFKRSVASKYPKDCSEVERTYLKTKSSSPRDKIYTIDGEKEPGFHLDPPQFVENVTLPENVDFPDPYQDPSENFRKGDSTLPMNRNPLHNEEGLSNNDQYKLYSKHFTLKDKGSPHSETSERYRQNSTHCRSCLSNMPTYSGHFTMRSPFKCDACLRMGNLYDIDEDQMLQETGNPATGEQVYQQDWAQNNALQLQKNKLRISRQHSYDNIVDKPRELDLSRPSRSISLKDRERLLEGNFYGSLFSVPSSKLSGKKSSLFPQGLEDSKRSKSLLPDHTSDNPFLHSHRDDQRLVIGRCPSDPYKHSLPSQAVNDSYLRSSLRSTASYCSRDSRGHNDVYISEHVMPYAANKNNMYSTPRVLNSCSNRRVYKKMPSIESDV
Chain of Sodium-dependent serotonin transporter (P31645 whole entry): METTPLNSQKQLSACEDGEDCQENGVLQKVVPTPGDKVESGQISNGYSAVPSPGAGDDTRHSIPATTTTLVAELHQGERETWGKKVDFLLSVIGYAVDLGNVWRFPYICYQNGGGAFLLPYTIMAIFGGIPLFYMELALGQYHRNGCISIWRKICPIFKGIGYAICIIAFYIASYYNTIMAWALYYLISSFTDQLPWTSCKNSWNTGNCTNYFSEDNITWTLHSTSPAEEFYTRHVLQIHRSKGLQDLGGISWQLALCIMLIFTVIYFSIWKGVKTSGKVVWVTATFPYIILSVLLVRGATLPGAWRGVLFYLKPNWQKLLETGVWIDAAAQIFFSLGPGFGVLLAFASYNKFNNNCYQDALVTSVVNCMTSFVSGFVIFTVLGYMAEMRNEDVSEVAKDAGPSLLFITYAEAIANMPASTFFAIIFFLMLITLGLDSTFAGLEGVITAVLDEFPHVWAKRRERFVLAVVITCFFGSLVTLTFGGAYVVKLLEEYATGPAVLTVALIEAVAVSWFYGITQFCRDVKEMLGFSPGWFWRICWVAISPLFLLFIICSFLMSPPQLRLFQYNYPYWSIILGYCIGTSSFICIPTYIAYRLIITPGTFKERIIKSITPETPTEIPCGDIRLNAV
Chain of Mu-type opioid receptor (P35372 whole entry): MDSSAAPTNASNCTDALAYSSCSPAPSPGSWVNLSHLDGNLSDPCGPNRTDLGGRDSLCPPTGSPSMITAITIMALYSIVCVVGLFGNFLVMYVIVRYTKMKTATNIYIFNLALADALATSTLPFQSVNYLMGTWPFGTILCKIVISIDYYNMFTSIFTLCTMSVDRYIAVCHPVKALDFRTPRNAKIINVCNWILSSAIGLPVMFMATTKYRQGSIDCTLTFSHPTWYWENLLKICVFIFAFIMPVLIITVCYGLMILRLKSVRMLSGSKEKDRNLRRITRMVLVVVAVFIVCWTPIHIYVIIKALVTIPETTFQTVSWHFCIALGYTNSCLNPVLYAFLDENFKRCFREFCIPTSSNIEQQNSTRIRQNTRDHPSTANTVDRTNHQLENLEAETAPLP

In the case of `CN1CC[C@@]23CCCC[C@@H]2[C@@H]1Cc1ccc(O)cc13` [DEXTRORPHAN], in [1], the inhibition (commonly how much of the control response was suppressed) was “inactive”. Further, the pIC50 (as a rule, the negative decadic logarithm of the IC50, by convention in mol/L) was 6.55 in data set [2], 5.55 in data set [3] and 3.20 in [4].
Take `CN1CC[C@@]23CCCC[C@@H]2[C@@H]1Cc1ccc(NC=O)cc13`: the inhibition worked out at 6% in [1] and 33% on Mu-type opioid receptor. Also, the pIC50 was 5.51 in [2] and 3.57 in data set [4]. Further, in data set [5], the inhibition result is “inactive”.
As for `COC(=O)c1ccc2c(c1)[C@]13CCCC[C@@H]1[C@H](C2)N(C)CC3`, the inhibition entry in data set [1] is “inactive”. Also, the pIC50 in data set [2] is 5.32; in data set [4], 4.77. In addition, the inhibition in data set [5] came to 12%; at Mu-type opioid receptor (filed as agonist) it was 88%.
For `CCc1ccc2c(c1)[C@]13CCCC[C@@H]1[C@H](C2)N(C)CC3`, the figures for the inhibition (in data set [1]; at Mu-type opioid receptor) were 13% and 23%, respectively. The pIC50 in data set [2] was 5.29; in [3], 5.31; in data set [4], 3.62.
As for `Cc1ccc(Sc2ccccc2N2CCNCC2)c(C)c1` [VORTIOXETINE], the IC50 (as a rule, the midpoint of a concentration-inhibition curve) at 48 h in data set [6] is 12.2 µM; in data set [7], 8.1 µM.
Consider `CNC(=O)c1ccc2c(c1)[C@]13CCCC[C@@H]1[C@H](C2)N(C)CC3`, for which the inhibition in [1] is 15%; in data set [5] it was 12%; at Mu-type opioid receptor, 25%. The results for the pIC50 in [2] and in [4] were 4.70 and 3.47, respectively.
Turning to `CC(O)c1ccc2c(c1)[C@]13CCCC[C@@H]1[C@H](C2)N(C)CC3` (stereo partly specified), the inhibition result in data set [1] is “inactive”. Further, the values for the inhibition (in data set [5]; at Mu-type opioid receptor) were 39% and 8%, respectively. Moreover, the pIC50 in data set [4] is 2.96.
For the compound `CN1CC[C@@]23CCCC[C@@H]2[C@@H]1Cc1ccc(C(=O)NC2CC2)cc13`, the inhibition was determined as 6% in [1] and 60% at Mu-type opioid receptor (filed as agonist). Also, the pIC50 is 5.03 in data set [2] and 2.25 in data set [4]. The inhibition result in data set [5] is “inactive”.
On the same counts, the results for `CC(=O)c1ccc2c(c1)[C@]13CCCC[C@@H]1[C@H](C2)N(C)CC3` are “inactive”, 87%, below 4.40, 3.89 and “inactive”.
In the case of `CCc1ccc2c(c1)[C@]13CCCC[C@@H]1[C@H](C2)N(CC)CC3`, the values for the inhibition (in data set [1]; in [5]; at Mu-type opioid receptor) were 5%, 24% and 10%, respectively. The pIC50 in [2] is 5.01; in data set [4] it was 2.64.
On the same counts, the results for `CCOc1ccc2c(c1)[C@]13CCCC[C@@H]1[C@H](C2)N(CC)CC3` are 6%, 26%, 4%, 5.89 and 2.70.
In the case of `Cc1ccc2c(c1)[C@]13CCCC[C@@H]1[C@H](C2)N(C)CC3` [DIMEMORFAN], the inhibition result in data set [1] was “inactive”. The pIC50 in data set [2] was 5.53; in data set [3], 5.91; in data set [4], 3.83. Further, in data set [8], the Ratio IC50 was found to be 20. In addition, the inhibition on Mu-type opioid receptor amounted to 21%.
Take `CN1CC[C@@]23CCCC[C@@H]2[C@@H]1Cc1ccc(C(C)(C)O)cc13`: the inhibition entry in data set [1] and in data set [5] was “inactive” in each case. The pIC50 is below 4.40 in data set [2] and 2.05 in data set [4]. In addition, the inhibition on Mu-type opioid receptor came to 11%.
Turning to `CN1CC[C@@]23CCCC[C@@H]2[C@@H]1Cc1ccc(NC(=O)c2ccccc2)cc13`, the inhibition in [1] was 15%; on Mu-type opioid receptor it was 14%. Further, the pIC50 in data set [2] was 5.66; in data set [4], 2.12. Besides, the inhibition entry in [5] was “inactive”.
With `c1ccc2c(c1)C[C@@H]1NCC[C@]23CCCC[C@H]13`, the inhibition in data set [1] came to 20%; in [5], 14%; on Mu-type opioid receptor (filed as agonist) it was 95%. Besides, the pIC50 in [4] was 2.08; in [9], 6.37.
Regarding `CCN1CC[C@@]23CCCC[C@@H]2[C@@H]1Cc1ccccc13`, in data set [1], the inhibition entry was “inactive”. In addition, the pIC50 was 5.31 in [2] and 1.95 in data set [4]. Moreover, the inhibition in [5] came out at 23%; on Mu-type opioid receptor (filed as agonist), 40%.
With `CCOc1ccc2c(c1)[C@]13CCCC[C@@H]1[C@H](C2)N(C)CC3`, the results for the inhibition (in data set [1]; in data set [5]; on Mu-type opioid receptor) were 10%, 33% and 26%, respectively. The results for the pIC50 in data set [2] and in data set [4] were 5.74 and 4.82, respectively.
For `CCc1ccc2c(c1)[C@]13CCCC[C@@H]1[C@H](C2)NCC3`, the inhibition result in data set [1] was “inactive”. Moreover, the pIC50 in data set [2] was 6.30; in data set [3] it was 5.33; in data set [4], 2.72. For the same compound, the inhibition at Mu-type opioid receptor worked out at 33%.
Taken in the same sequence, the figures for `CN1CC[C@@]23CCCC[C@@H]2[C@@H]1Cc1ccccc13` were 15%, 5.53, 4.76, 3.48 and 39%.
For `COc1ccc2c(c1)[C@]13CCCC[C@@H]1[C@H](C2)NCC3`, the inhibition in data set [1] stood at 4%; in data set [5], 44%; at Mu-type opioid receptor, 23%. Besides, the results for the pIC50 in data set [2] and in data set [4] were 6.52 and 2.93, respectively.
Taken in the same sequence, the figures for `CCOc1ccc2c(c1)[C@]13CCCC[C@@H]1[C@H](C2)NCC3` were 16%, 12%, 24%, 6.47 and 3.33.
Take `CCN1CC[C@@]23CCCC[C@@H]2[C@@H]1Cc1ccc(O)cc13`: the figures for the inhibition (in data set [1]; on Mu-type opioid receptor) were 12% and 9%, respectively. The values for the pIC50 in [2], in data set [3] and in data set [4] were 6.55, 4.98 and 2.27, respectively.
Taken in the same sequence, the figures for `Cc1ccc2c(c1)[C@]13CCCC[C@@H]1[C@H](C2)NCC3` were “inactive”, 16%, 6.55, 5.24 and 2.68.
On to `CNc1ccc2c(c1)[C@]13CCCC[C@@H]1[C@H](C2)N(C)CC3`, for which the inhibition is 10% in data set [1], 25% in data set [5] and 14% at Mu-type opioid receptor. Besides, the results for the negative logarithm of the IC50 (pIC50) in [2] and in data set [4] were 5.21 and 3.24, respectively.
